Measured values published in patent US6156899A, “N-aryl-2-hydroxyalkylamido compositions for inducing/stimulating hair growth and/or retarding hair loss and/or for treating hyperseborrhea and/or acne” (Societe L'Oreal S.A., priority 1997, dated 2000).
Where two headings read alike, the source gives them in different places.

Assays:
[1] = test system: rings of the thoracic region of the aorta (aortic smooth muscles); assay: Potassium channel opener activity: in vitro relaxant power on rings of the thoracic region of the aorta contracted with KCl; type: cell-based; details: for mixed activity (potassium channel opener/antiandrogen): conclusion from Tables I and II; for IC50: read-out: Inhibition contraction isolated aorta induced by K+: IC50
Experimental: Measurement of the Activity of "Potassium Channel Opener" Type of the Ethyl Ester of (4-Cyano-3-(trifluoromethyl)phenyl)(3,3,3-trifluoro-2-hydroxy-2-methylpropionyl)carbamic Acid (Example 1) and of (4-cyano-3-(trifluoromethyl)phenyl)(3,3,3-trifluoro-2-hydroxy-2-methylpropionyl)carbamic Acid (Example 2) by the in Vitro Measurement of the Relaxant Power of the Molecules on Rings of the Thoracic Region of the Aorta (IC50):
The experiments were carried out according to the techniques of Newgreen et al. (Br. J. Pharmacol., 100, p. 605-613 (1990)), Bray et al. (Arch. Pharmacol., 344, p. 351-359 (1991)) and Wickerden et al. (Br. J. Pharmacol., 103, 1148-1152 (1991)).
After they had been mounted into the isolated organ vessels, the tissues (aortic smooth muscles) were subjected to an initial tension of 2 g.
After an equilibration period, the tissues were exposed to a potassium chloride solution (20 mM KCl), in order to obtain a sustained contractile response.
After stabilization of this contractile response, the relaxant activity (of potassium channel opener type) of the test molecules was evaluated as a function of the concentration applied.
During the experimentation, two reference molecules were employed: cromakalim and minoxidil.

androgen receptor = biological target: T1, androgen receptor (Rattus norvegicus, UniProt P15207); assay: Affinity (IC50) for the androgen receptor: inhibition of the binding of testosterone (Schilling and Liao technique)
T1 sequence (P15207 1-902): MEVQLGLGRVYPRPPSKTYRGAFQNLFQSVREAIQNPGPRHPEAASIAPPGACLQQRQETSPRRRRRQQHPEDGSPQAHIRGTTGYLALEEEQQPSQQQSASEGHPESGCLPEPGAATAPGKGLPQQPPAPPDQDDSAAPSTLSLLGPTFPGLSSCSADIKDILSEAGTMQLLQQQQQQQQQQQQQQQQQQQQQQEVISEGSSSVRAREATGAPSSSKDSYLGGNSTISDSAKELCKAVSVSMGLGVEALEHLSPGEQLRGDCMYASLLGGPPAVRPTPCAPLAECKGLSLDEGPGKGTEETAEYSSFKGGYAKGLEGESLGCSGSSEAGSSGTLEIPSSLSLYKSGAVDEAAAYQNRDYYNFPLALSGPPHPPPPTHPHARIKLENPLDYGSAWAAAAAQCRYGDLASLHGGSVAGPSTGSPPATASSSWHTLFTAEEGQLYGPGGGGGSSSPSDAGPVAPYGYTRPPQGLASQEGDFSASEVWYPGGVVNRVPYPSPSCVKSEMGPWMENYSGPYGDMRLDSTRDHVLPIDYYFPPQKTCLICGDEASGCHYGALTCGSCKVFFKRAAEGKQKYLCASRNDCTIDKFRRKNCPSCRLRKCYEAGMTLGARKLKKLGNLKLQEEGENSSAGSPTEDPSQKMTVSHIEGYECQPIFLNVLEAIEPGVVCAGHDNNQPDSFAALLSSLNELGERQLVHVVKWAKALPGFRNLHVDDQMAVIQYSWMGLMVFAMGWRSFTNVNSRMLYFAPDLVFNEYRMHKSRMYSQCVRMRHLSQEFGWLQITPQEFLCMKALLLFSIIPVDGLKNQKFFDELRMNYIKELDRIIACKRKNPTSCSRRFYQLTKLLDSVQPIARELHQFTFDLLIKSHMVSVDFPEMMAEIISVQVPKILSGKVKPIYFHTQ
Experimental: Measurement of the Affinity (IC50) of the Ethyl Ester of (4-Cyano-3-(trifluoromethyl)phenyl)(3,3,3-trifluoro-2-hydroxy-2-methylpropionyl)carbamic Acid (Example 1) and of (4-Cyano-3-(trifluoromethyl)phenyl)(3,3,3-trifluoro-2-hydroxy-2-methylpropionyl)carbamic Acid (Example 2) for the Androgen Receptor:
These measurements of receptor affinity for the androgen receptor were carried out according to the technique of Schilling and Liao, described in The Prostate, 5, p. 581-588 (1984).
During the experimentation, the reference molecule (mibolerone) was tested in parallel at 8 concentrations, in order to validate the experiment.

[2] = 20 mM KCl, thoracic aorta rings, initial tension 2 g

SMILES	mixed activity (potassium channel opener/antiandrogen) [1]	IC50 [1]	IC50 (androgen receptor)	IC50 [1, 2]
CCOC(=O)N(C(=O)C(C)(O)C(F)(F)F)c1ccc(C#N)c(C(F)(F)F)c1 (centres unmarked) [Example 1, Ethyl Ester of (4-Cyano-3-(trifluoromethyl)phenyl)(3,3,3-trifluoro-2-hydroxy-2-methylpropionyl)carbamic Acid]	mixed activity	2000 nM	2 µM	
CC(O)(C(=O)N(C(=O)O)c1ccc(C#N)c(C(F)(F)F)c1)C(F)(F)F (centres unmarked) [Example 2, (4-Cyano-3-(trifluoromethyl)phenyl)(3,3,3-trifluoro-2-hydroxy-2-methylpropionyl)carbamic Acid]	mixed activity	3000 nM	4 µM	
CC1(C)Oc2ccc(C#N)cc2C(N2CCCC2=O)C1O (centres unmarked) [cromakalim, reference compound]				~1000 nM
Nc1cc(N2CCCCC2)nc(N)[n+]1[O-] [minoxidil, 2,4-diamino-6-piperidinopyrimidine 3-oxide, reference compound]				~1000 nM
